Paper PMC6561244 (Proceedings of the National Academy of Sciences of the …, 2019)

Molecular target: T1, CKL4 (Arabidopsis thaliana, UniProt Q8LPI7)
T1 sequence (Q8LPI7 1-414): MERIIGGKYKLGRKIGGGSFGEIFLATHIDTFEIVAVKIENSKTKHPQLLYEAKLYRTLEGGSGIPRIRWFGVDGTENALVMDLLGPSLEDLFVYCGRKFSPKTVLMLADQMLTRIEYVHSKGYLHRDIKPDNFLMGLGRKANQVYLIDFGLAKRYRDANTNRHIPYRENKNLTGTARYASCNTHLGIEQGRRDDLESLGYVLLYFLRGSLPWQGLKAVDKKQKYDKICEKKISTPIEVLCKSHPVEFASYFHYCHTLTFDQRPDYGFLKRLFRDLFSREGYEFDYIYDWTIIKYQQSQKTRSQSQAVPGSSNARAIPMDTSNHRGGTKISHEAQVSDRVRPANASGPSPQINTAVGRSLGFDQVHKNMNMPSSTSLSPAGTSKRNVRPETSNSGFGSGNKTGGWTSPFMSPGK
Experiment: in vitro kinase assay with isotope-labeled ATP
Assay type: biochemical

With O=C1NCCc2[nH]c(-c3ccncc3)cc21 [PHA767491] the IC50 was roughly 5 µM.
